Measurements as given in PMC8246065 (The EMBO Journal, 2021).

Target: T1, NOD1 H517A (Homo sapiens, UniProt Q9Y239, H517A)
T1 construct: made in house
T1 sequence (Q9Y239 1-953 H517A): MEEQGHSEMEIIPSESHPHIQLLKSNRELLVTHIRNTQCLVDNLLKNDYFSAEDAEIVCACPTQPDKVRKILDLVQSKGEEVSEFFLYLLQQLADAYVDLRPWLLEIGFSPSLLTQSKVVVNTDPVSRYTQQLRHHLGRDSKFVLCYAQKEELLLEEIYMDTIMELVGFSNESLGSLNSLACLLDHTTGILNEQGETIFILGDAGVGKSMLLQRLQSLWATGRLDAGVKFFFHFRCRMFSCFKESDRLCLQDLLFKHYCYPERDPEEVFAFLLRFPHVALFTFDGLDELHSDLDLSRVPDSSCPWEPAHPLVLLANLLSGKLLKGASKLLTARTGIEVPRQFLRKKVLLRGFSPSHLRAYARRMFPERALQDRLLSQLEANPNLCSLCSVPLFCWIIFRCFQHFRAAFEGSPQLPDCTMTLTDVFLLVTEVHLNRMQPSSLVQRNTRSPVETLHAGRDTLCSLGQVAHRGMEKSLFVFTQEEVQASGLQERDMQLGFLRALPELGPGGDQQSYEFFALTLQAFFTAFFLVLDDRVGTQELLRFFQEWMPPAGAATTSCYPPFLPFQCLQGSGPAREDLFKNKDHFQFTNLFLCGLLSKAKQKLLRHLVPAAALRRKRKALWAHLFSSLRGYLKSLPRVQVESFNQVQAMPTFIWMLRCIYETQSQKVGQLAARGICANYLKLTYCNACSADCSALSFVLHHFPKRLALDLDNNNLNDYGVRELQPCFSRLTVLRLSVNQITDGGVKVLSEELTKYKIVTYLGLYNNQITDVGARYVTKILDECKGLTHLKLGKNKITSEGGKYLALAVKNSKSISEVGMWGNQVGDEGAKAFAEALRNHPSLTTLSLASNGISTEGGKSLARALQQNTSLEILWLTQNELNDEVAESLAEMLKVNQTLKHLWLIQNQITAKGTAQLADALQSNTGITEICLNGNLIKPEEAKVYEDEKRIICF
Experiment: MST binding to purified NOD1 H517A-GFP
Description: The mutagenesis was performed with Q5® site‐directed mutagenesis kit (E0554, NEB) according to the manufacturer's instructions. The primers used in this study were as follows: NOD1 E157A F: 5′‐[…]gcg[…]‐3′, NOD1 E157A R: 5′‐[…]‐3′, NOD1 D161A F: 5′‐[…]gcg[…]‐3′, NOD1 D161A R: 5′‐[…]‐3′, NOD1 D203A F: 5′‐[…]gcg[…]‐3′, D203A R: 5′‐[…]‐3′, L218A F: 5′‐[…]gcg[…]‐3′, L218A R: 5′‐[…]‐3′, R237A F: 5′‐[…]gcg[…]‐3′, R237A R: 5′‐[…]‐3′, H257A F: 5′‐[…]gcg[…]‐3′, H257A R: 5′‐[…]‐3′, E267A F: 5′‐[…]gcg[…]‐3′, E267A R: 5′‐[…]‐3′, H290A F: 5′‐[…]gcg[…]‐3′, H290A R: 5′‐[…]‐3′, E306A F: 5′‐[…]gcg[…]‐3′, E306A R: 5′‐[…]‐3′, K324A F: 5′‐[…]gcg[…]‐3′, K324A R: 5′‐[…]‐3′, K328A F: 5′‐[…]gcg[…]‐3′, K328A R: 5′‐[…]‐3′, R340A F: 5′‐[…]gcg[…]‐3′, R340A R: 5′‐[…]‐3′, R344A F: 5′‐[…]gcg[…]‐3′, R344A R: 5′‐[…]‐3′, R350A F: 5′‐[…]gcg[…]‐3′, R350A R: 5′‐[…]‐3′, D372A F: 5′‐[…]gcg[…]‐3′, D372A R: 5′‐[…]‐3′, R373A F: 5′‐[…]gcg[…]‐3′, R373A R: 5′‐[…]‐3′, R399A F: 5′‐[…]gcg[…]‐3′, R399A R: 5′‐[…]‐3′, D423A F: 5′‐[…]gcg[…]‐3′, D423A R: 5′‐[…]‐3′, R435A F: 5′‐5′‐[…]gcg[…]‐3′, R435A R: 5′‐[…]‐3′, Q484A F: 5′‐[…]gcg[…]‐3′, Q484A R: 5′‐[…]‐3′, L495A F: 5′‐[…]gcg[…]‐3′, L495A R: 5′‐[…]‐3′, E514A F: 5′‐[…]gcg[…]‐3′, E514A R: 5′‐[…]‐3′, H517A F: 5′‐[…]gcg[…]‐3′, H517A R: 5′‐[…]‐3′, L540A F: 5′‐[…]gcg[…]‐3′, L540A R: 5′‐[…]‐3′, F544A F: 5′‐[…]gcg[…]‐3′, and F544A R: 5′‐[…]‐3′.

SMILES: CCCCCCCCCCCCC/C=C/[C@@H](O)[C@@H](N)COP(=O)(O)O [S1P, sphingosine‐1‐phosphate]
- Kd (Kd value of NOD1 H517A with S1P): ~15 µM
- Kd (Kd(NOD1 H517A: S1P), Fig 7E): 13.7 ± 6.1 µM
